Experimental findings from ChEMBL document CHEMBL1126414, “Dopamine receptor binding properties of some 2,3,4,5-tetrahydro-1H-3-benzazepine-7-ols with non-aromatic substituents in the 5-position” (Bioorg Med Chem Lett, 1992) are described below.

One experiment deals with D(1A) dopamine receptor (Rattus norvegicus, UniProt P18901). Kind of experiment: Binding affinity towards Dopamine receptor D1 in rat striatal tissue by [3H]-SCH- 23390 displacement. It counts as tissue-based, Striatum.
In the next experiment the target is D(2) dopamine receptor (Rattus norvegicus, UniProt P61169). Kind of experiment: Binding affinity towards Dopamine receptor D2 in rat striatal tissue by [3H]spiperone displacement. It counts as tissue-based, Striatum.
A further experiment deals with Rattus norvegicus. The experiment is described as follows: Minimal dose producing reduction in avoidance responding after sc administration for 1 hr in rat. It counts as functional.

Each structure is given as a SMILES string. Some results are limits rather than exact numbers.

Sequence of D(2) dopamine receptor (P61169 whole entry): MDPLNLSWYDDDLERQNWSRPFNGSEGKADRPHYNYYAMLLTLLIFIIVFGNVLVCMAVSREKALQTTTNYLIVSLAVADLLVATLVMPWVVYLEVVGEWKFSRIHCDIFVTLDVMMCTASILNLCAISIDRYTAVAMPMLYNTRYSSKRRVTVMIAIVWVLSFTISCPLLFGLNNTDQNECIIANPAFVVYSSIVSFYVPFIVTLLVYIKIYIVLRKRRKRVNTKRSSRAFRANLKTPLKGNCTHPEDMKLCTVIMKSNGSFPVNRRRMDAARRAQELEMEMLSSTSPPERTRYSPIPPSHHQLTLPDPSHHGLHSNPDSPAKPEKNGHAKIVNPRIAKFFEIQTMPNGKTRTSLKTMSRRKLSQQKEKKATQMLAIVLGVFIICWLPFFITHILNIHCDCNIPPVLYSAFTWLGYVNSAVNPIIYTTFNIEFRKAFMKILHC
Sequence of D(1A) dopamine receptor (P18901 whole entry): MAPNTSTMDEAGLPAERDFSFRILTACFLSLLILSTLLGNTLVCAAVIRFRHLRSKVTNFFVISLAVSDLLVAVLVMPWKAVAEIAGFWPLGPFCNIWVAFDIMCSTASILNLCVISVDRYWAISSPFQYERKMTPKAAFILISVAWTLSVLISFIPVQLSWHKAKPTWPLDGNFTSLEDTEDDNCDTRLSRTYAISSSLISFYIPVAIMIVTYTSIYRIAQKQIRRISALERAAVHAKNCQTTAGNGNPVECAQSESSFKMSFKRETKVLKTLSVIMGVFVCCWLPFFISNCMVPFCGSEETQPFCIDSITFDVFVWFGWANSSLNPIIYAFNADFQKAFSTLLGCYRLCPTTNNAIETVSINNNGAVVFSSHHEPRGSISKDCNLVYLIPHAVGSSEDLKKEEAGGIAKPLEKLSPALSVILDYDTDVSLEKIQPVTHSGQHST

Broadly, the Ki is the equilibrium dissociation constant of an inhibitor or competing ligand from its target. A low value points to a stronger hold on the target. As to `C#CCC1CN(C)CCc2cc(Cl)c(O)cc21` (centres undefined), the inhibitory constant (Ki) at D(1A) dopamine receptor worked out at 0.0087 µM; at D(2) dopamine receptor, 0.626 µM. The compound further displayed a CAR with Rattus norvegicus of 1 MPK.
For `CN1CCc2cc(Cl)c(O)cc2C(C2C=CC=CC=C2)C1` (centres undefined) the same measures were 0.0037 µM, 1.8 µM and 0.1 MPK.
Take `CCOC1CN(C)CCc2cc(Cl)c(O)cc21` (centres undefined): the inhibition constant Ki at D(1A) dopamine receptor is 0.024 µM; at D(2) dopamine receptor, > 10 µM. In the experiment on Rattus norvegicus, the CAR was 1 MPK.
For `CN1CCc2cc(Cl)c(O)cc2C(C2C=CCCC2)C1` (centres undefined) the same measures were 0.002 µM, 0.581 µM and 0.3 MPK.
Turning to `CCCC1CN(C)CCc2cc(Cl)c(O)cc21` (centres undefined), the Ki at D(1A) dopamine receptor came out at 0.0033 µM; at D(2) dopamine receptor, 1.16 µM. In the experiment with Rattus norvegicus, the CAR amounted to 0.3 MPK.
`CN1CCc2cc(Cl)c(O)cc2C(C2=CCCCC2)C1` (centres undefined): the figures for the Ki at D(1A) dopamine receptor and at D(2) dopamine receptor were 0.0021 µM and 1.6 µM, respectively. Further, in the experiment with Rattus norvegicus, the CAR was 0.1 MPK.
Take `CN1CCc2cc(Cl)c(O)cc2C(N2CCCCC2)C1` (centres undefined): the Ki was 0.1 µM on D(1A) dopamine receptor and > 10 µM at D(2) dopamine receptor. In the experiment with Rattus norvegicus, the CAR is 3 MPK.
For `C=CCC1CN(C)CCc2cc(Cl)c(O)cc21` (centres undefined) the same measures were 0.0057 µM, 0.284 µM and 0.1 MPK.
For `CN1CCc2cc(Cl)c(O)cc2C(C2CCCCCC2)C1` (centres undefined), in that order: 0.0076 µM, 1.19 µM and 1 MPK.
For `CN1CCc2cc(Cl)c(O)cc2C2(CCCC2)C1` the same measures were 0.023 µM, 2.25 µM and 1 MPK.
As for `CCSC1CN(C)CCc2cc(Cl)c(O)cc21` (centres undefined), the affinity on D(2) dopamine receptor, expressed as Ki, was 2.71 µM.
Consider `CN1CCc2cc(Cl)c(O)cc2C(C2CCCC2)C1` (centres undefined), for which the Ki on D(1A) dopamine receptor was 0.013 µM; at D(2) dopamine receptor, 2.05 µM. Besides, the CAR with Rattus norvegicus was 1 MPK.
With `CN1CCc2cc(O)c(Cl)cc2CC1`, the Ki is 0.046 µM at D(1A) dopamine receptor and 0.265 µM on D(2) dopamine receptor. Further, the CAR in the experiment with Rattus norvegicus is recorded as 1 MPK.
As to `CN(C)CCCC1CN(C)CCc2cc(Cl)c(O)cc21` (centres undefined), the Ki is > 1 µM on D(1A) dopamine receptor and > 100 µM at D(2) dopamine receptor.
For `CN1CCc2cc(Cl)c(O)cc2C(C2=CCCC2)C1` (centres undefined), in that order: 0.0051 µM and 1.54 µM.
The compound `CN1CCc2cc(Cl)c(O)cc2C(C2CCCCC2)C1` (centres undefined) yielded a Ki at D(2) dopamine receptor of 1.78 µM. The same compound had a CAR in the experiment on Rattus norvegicus of 0.3 MPK.
Take `CN1CCc2cc(Cl)c(O)cc2[C@@H](c2ccccc2)C1` [SCH-23390]: in the experiment on Rattus norvegicus, the CAR came to 0.02 MPK.
